System: corneal reepithelialization
Assay: rabbit corneal wound healing model (corneal reepithelialization after 9.5-mm epithelial wound, fluorescein-stained wound area)
Type: in vivo, New Zealand White rabbits
Settings: n=10 per group
From the text: Animals. One hundred and ten pathogen-free New Zealand White rabbits were obtained from a commercial laboratory. Animals were at least 18 weeks old and 2-3 kg body weight at the time of treatment.
Pre-Treatment Examinations. Prior to placement on study, each animal underwent a pre-treatment ophthalmic examination (slit lamp with fluorescein staining). […] Animals were then randomly assigned to eleven treatment groups (10 animals per group) according to a modified Latin square design. Animals were fasted at least 12 hours prior to corneal wound surgery.
Wounding Procedure. […]
Corneal Wound Evaluation. The corneal wound condition was evaluated immediately post wounding and at 12, 24, 36, 48, 60, and 72 hours. […] From the photographs, the perimeter of the wounds was determined using a Mechanical Polar Planimeter (LASISCO; Los Angeles, Calif.).
Numerical results were expressed as mean±SEM, n=10, unless indicated otherwise. Data were analyzed by a two-way ANOVA with repeated measures followed by the Tukey-Kramer test. In addition, overall effects were evaluated by analyzing integrated responses calculated as the areas under the curve (AUC) for each treatment over the time course. […] Integrated responses were analyzed by a one-way ANOVA followed by the Tukey-Kramer test. […]

benzalkonium chloride [BAK]
integrated wound area (AUC over the time course) compared to the saline control (0 to 72 hours, trapezoidal rule): no significant effects | effect on corneal reepithelialization time-course (wound area) compared to the saline control (topical, 14 instillations over 72 hours, time points 12-72 hours): No significant effects

Source: patent US20120070401A1, “Composition and Method for Promoting Wound Healing” (priority 2010, published 2012)
